Consider 22 compounds from patent publication US10047083B2, “Dihydropyrimidinoisoquinolinones and pharmaceutical compositions thereof for the treatment of inflammatory disorders” (GALAPAGOS NV, priority 2011, dated 2018).

The target in one assay is T1, GPR84 (Homo sapiens, UniProt Q9NQS5).
T1 construct: expressed in transfected cells; membranes used
As to the kind of experiment: GTPγS binding assay (GPR84). The assay is classed as biochemical. The settings on record: membranes from stable cell line over expressing GPR84; 3,3′ di indolylmethane at EC80. The procedure, abridged:
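Membranes (20 μg/well) from a stable GPR84-overexpressing line, pre-incubated with 0.1 μM GDP for 15 min at 4° C, mixed with 0.1 nM [35S]GTPγS and WGA SpA beads in 20 mM HEPES pH 7.4, 5 mM MgCl2, 250 mM NaCl, 0.05% BSA, 75 ug/mL saponin; 90 min at room temperature, then scintillation counting.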

The subject of the next assay is human neutrophils. As to the kind of experiment: Human neutrophil migration assay (embelin-induced). Type of assay: cell-based. As to conditions: neutrophils from human buffy coat, 30 min compound pre-incubation, migration towards embelin at EC80 for 1 h, ATPlite readout, read-out: human neutrophil migration inhibition (Neutrophils). The protocol: 2. Cellular Assays 2.1. Human Neutrophil Migration Assay
The effect of agonists or antagonists for GPR84 can therefore be assayed in a neutrophil migration test. In the neutrophil migration assay, neutrophils, freshly isolated from buffy coats from human volunteers, are treated with a compound for 30 minutes. Subsequently, the neutrophils are transferred to the upper wells of a Corning HTS transwell 96 permeable support system, of which the lower wells are filled with a embelin solution at EC80 (concentration which gives 80% of the activity of GPR84). After 1 h of incubation, migration of the neutrophils towards embelin in the lower compartment can be quantified by measuring the ATP-content of the lower wells using the ATPlite luminescence ATP detection assay system (Perkin Elmer, Cat. No.: 436110).
A human buffy coat is diluted with an equal volume of ice cold DPBS. 20 mL of the diluted buffy coat is gently mixed with 4 mL of ACD buffer (140 mM citric acid, 200 mM sodium citrate and 220 mM dextrose). Then, 12 mL of the 6% dextran/0.9% NaCl solution (15 g dextran T2000 and 2.25 g NaCl dissolved in 250 mL H2O) is added to the mixture and the samples are inverted gently up to 20 times. The total volume was transferred to a new recipient and incubated at room temperature for 1 h for complete separation of the two phases to occur. The yellowish supernatant is then transferred to a clean centrifugation tube and centrifuged for 12 minutes at 1300 rpm and 4° C. After centrifugation, the supernatant is discarded and the remaining cell pellet is rapidly resuspended in 12 mL of ice-cold H2O for red blood cell lysis to occur. After 20 seconds, 4 mL of ice-cold 0.6 M KCl is added. Samples are mixed carefully and centrifuged for 6 minutes at 1300 rpm, 4° C. The supernatant is discarded and the red blood cell lysis procedure is repeated one more time. Subsequently, the cell pellet is resuspended in 4 mL of DPBS and layered over 5 mL of Lymphoprep (Nycomed Pharma, Cat. No.: 1114545) in a 15 mL centrifuge tube. After centrifugation for 12 min at 1300 rpm, 4° C., the supernatant is removed and the cell pellet, containing the neutrophils, is resuspended in 25 mL chemotaxis buffer (RPMI 1640 medium, supplemented with 10 mM HEPES; freshly made for each experiment)
A cell suspension of 8.9×10^6 cells per milliliter is prepared. 20 μL of compound solution in chemotaxis buffer is added to 180 μL cell suspension. The mixture is incubated at 37° C. for 30 minutes with intermediate resuspension of the cells after 15 minutes. Following this, 70 μL cell suspension is transferred to the upper compartment of a Corning HTS transwell 96 permeable support system with 5.0 μm pore size polycarbonate membrane (Corning, Cat. No.: 3387). The receiver well of the transwell system is then filled with 200 μL chemotaxis buffer containing compound and chemotactic agent (embelin). After incubation at 37° C. in 5% CO2 for 1 h, the upper plate of the transwell system is removed and the cell suspension in the receiver plate is transferred to a 96-well V-bottom plate. 50 μL of DPBS is added to the receiver plate to prevent remaining cells from drying out. The V-bottom plate is centrifuged for 6 minutes at 1500 rpm. The supernatant is removed and the cells are resuspended in 50 μL DPBS. The cells are then transferred back to the receiver plate of the transwell system. After this, 100 μL ATPlite solution (Perkin Elmer, Cat. No: 436110) was added to the cells. The plate is incubated for 10 minutes in the dark, while shaking. […] of cell lysate is then transferred to a white 96-well plate and luminescence is measured. The detected luminescent signal is considered as linearely related to the number of cells having migrated from the upper well to the receiver well.
For orientation: In ATP-based viability assays light output follows the ATP content of the culture.

SMILES strings stand for the structures.

T1 sequence (Q9NQS5 whole entry): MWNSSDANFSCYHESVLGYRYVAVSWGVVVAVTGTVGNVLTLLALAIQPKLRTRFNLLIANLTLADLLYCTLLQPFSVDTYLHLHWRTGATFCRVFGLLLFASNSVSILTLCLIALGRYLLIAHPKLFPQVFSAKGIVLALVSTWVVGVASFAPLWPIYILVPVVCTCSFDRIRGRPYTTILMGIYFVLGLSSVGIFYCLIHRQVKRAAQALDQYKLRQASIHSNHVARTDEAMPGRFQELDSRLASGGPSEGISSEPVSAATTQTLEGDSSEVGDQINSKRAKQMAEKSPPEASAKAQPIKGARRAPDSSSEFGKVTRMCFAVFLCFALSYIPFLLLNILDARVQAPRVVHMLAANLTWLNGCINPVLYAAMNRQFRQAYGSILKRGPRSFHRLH

Regarding `Cn1cncc1C#Cc1ccc2c(c1)CCn1c-2cc(OCC2COCCO2)nc1=O` (stereo not drawn) [Compound 16, 2-([1,4]dioxan-2-ylmethoxy)-9-(3-methyl-3H-imidazol-4-ylethynyl)-6,7-dihydro-pyrimido[6,1-a]isoquinolin-4-one], the IC50 on GPR84 and with human neutrophils was 101 to 500 nM in each case. As to `N#CCOc1ccc2c(c1)CCn1c-2cc(OCC2COCCO2)nc1=O` (stereo not drawn) [Compound 7, [2-([1,4]dioxan-2-ylmethoxy)-4-oxo-6,7-dihydro-4H-pyrimido[6,1-a]isoquinolin-9-yloxy]-acetonitrile], the IC50 at GPR84 and with human neutrophils was 101 to 500 nM in each case. As to `CC(C)(C)COc1ccc2c(c1)CCn1c-2cc(OC[C@@H]2COCCO2)nc1=O` [Compound 158, 9-(2,2-dimethyl-propoxy)-2-((S)-1-[1,4]dioxan-2-ylmethoxy)-6,7-dihydro-pyrimido[6,1-a]isoquinolin-4-one], the results for the IC50 at GPR84 and in the assay on human neutrophils were 101 to 500 nM and 0.01 to 100 nM, respectively. `O=c1nc(OCC2COCCO2)cc2n1CCc1cc(OCc3ncco3)ccc1-2` (stereo not drawn) [Compound 8, 2-([1,4]dioxan-2-ylmethoxy)-9-(oxazol-2-ylmethoxy)-6,7-dihydro-pyrimido[6,1-a]isoquinolin-4-one]: the IC50 at GPR84 and in the assay with human neutrophils was 101 to 500 nM each time. Regarding `CC(C)(C)OCc1ccc2c(c1)CCn1c-2cc(OCC2COCCO2)nc1=O` (stereo not drawn) [Compound 72, 9-tert-butoxymethyl-2-([1,4]dioxan-2-ylmethoxy)-6,7-dihydro-pyrimido[6,1-a]isoquinolin-4-one], the IC50 at GPR84 and with human neutrophils was 0.01 to 100 nM each time. Take `O=c1nc(OC[C@H]2COCCO2)cc2n1CCc1cc(CCC3CC3)ccc1-2` [Compound 114, 9-(2-cyclopropyl-ethyl)-2-((R)-1-[1,4]dioxan-2-ylmethoxy)-6,7-dihydro-pyrimido[6,1-a]isoquinolin-4-one]: the IC50 on GPR84 and in the assay with human neutrophils was 0.01 to 100 nM throughout. `O=c1nc(OCC2COCCO2)cc2n1CCc1cc(C#CCNc3ccccc3)ccc1-2` (stereo not drawn) [Compound 107, 2-([1,4]dioxan-2-ylmethoxy)-9-(3-phenylamino-prop-1-ynyl)-6,7-dihydro-pyrimido[6,1-a]isoquinolin-4-one]: the IC50 at GPR84 and in the assay with human neutrophils was 0.01 to 100 nM each time. As for `O=c1nc(OCC2COCCO2)cc2n1CCc1cc(OCc3ccccn3)ccc1-2` (stereo not drawn) [Compound 9, 2-([1,4]dioxan-2-ylmethoxy)-9-(pyridin-2-ylmethoxy)-6,7-dihydro-pyrimido[6,1-a]isoquinolin-4-one], the IC50 on GPR84 and with human neutrophils was 0.01 to 100 nM throughout. Regarding `CCCCCc1ccc2c(c1)CCn1c-2cc(OC[C@H]2COCCO2)nc1=O` [Compound 121, 2-((R)-1-[1,4]dioxan-2-ylmethoxy)-9-pentyl-6,7-dihydro-pyrimido[6,1-a]isoquinolin-4-one], the IC50 at GPR84 is 0.01 to 100 nM; in the assay on human neutrophils it was 101 to 500 nM. In the same order, the values of `CNC(=O)c1ccc(-c2ccc3c(c2)CCn2c-3cc(OCC3COCCO3)nc2=O)cc1` (stereo not drawn) [Compound 42, 4-[2-([1,4]dioxan-2-ylmethoxy)-4-oxo-6,7-dihydro-4H-pyrimido[6,1-a]isoquinolin-9-yl]-N-methyl-benzamide] are 101 to 500 nM and 101 to 500 nM. With `CC(O)CCCc1ccc2c(c1)CCn1c-2cc(OC[C@@H]2COCCO2)nc1=O` (stereo partly drawn) [Compound 150, 2-((S)-1-[1,4]dioxan-2-ylmethoxy)-9-(4-hydroxy-pentyl)-6,7-dihydro-pyrimido[6,1-a]isoquinolin-4-one], the IC50 on GPR84 fell in the range of 101 to 500 nM; in the assay with human neutrophils, 0.01 to 100 nM. Taken in the same sequence, the figures for `O=c1nc(OC[C@@H]2COCCO2)cc2n1CCc1cc(OCC3CCCCO3)ccc1-2` (stereo partly drawn) [Compound 139, 2-((S)-1-[1,4]dioxan-2-ylmethoxy)-9-(tetrahydro-pyran-2-ylmethoxy)-6,7-dihydro-pyrimido[6,1-a]isoquinolin-4-one] were 0.01 to 100 nM and 0.01 to 100 nM.

`CCCOCCOc1ccc2c(c1)CCn1c-2cc(OC[C@@H]2COCCO2)nc1=O` [Compound 170, 2-((S)-1-[1,4]Dioxan-2-ylmethoxy)-9-(2-propoxy-ethoxy)-6,7-dihydro-pyrimido[6,1-a]isoquinolin-4-one]: the IC50 at GPR84 and in the assay on human neutrophils was 0.01 to 100 nM in each case. As to `CC(C)OCCOc1ccc2c(c1)CCn1c-2cc(OC[C@@H]2COCCO2)nc1=O` [Compound 171, 2-((S)-1-[1,4]Dioxan-2-ylmethoxy)-9-(2-isopropoxy-ethoxy)-6,7-dihydro-pyrimido[6,1-a]isoquinolin-4-one], the IC50 on GPR84 and with human neutrophils was 0.01 to 100 nM in each case. For `COCCOCC#Cc1ccc2c(c1)CCn1c-2cc(OC[C@@H]2COCCO2)nc1=O` [Compound 133, 2-((S)-1-[1,4]dioxan-2-ylmethoxy)-9-[3-(2-methoxy-ethoxy)-prop-1-ynyl]-6,7-dihydro-pyrimido[6,1-a]isoquinolin-4-one], the IC50 lay in the range of 101 to 500 nM at GPR84 and 0.01 to 100 nM in the assay on human neutrophils. `O=c1nc(OC[C@@H]2COCCO2)cc2n1CCc1cc(COCC3CCOCC3)ccc1-2` [Compound 161, 2-((S)-1-[1,4]dioxan-2-ylmethoxy)-9-(tetrahydro-pyran-4-ylmethoxymethyl)-6,7-dihydro-pyrimido[6,1-a]isoquinolin-4-one]: the IC50 was in the range of 101 to 500 nM at GPR84 and 0.01 to 100 nM in the assay with human neutrophils. On to `O=c1nc(OCC2COCCO2)cc2n1CCc1cc(OCc3noc(C4CC4)n3)ccc1-2` (stereo not drawn) [Compound 77, 9-(5-cyclopropyl-[1,2,4]oxadiazol-3-ylmethoxy)-2-([1,4]dioxan-2-ylmethoxy)-6,7-dihydro-pyrimido[6,1-a]isoquinolin-4-one], for which the IC50 on GPR84 and in the assay with human neutrophils was 0.01 to 100 nM throughout. Take `CCC(O)C#Cc1ccc2c(c1)CCn1c-2cc(OCC2COCCO2)nc1=O` (stereo not drawn) [Compound 89, 2-([1,4]dioxan-2-ylmethoxy)-9-(3-hydroxy-pent-1-ynyl)-6,7-dihydro-pyrimido[6,1-a]isoquinolin-4-one]: the IC50 on GPR84 lay within 101 to 500 nM; in the assay on human neutrophils, 0.01 to 100 nM.

Consider `CC(C)C#Cc1ccc2c(c1)CCn1c-2cc(OC[C@@H]2COCCO2)nc1=O` [Compound 112, 2-((S)-1-[1,4]dioxan-2-ylmethoxy)-9-(3-methyl-but-1-ynyl)-6,7-dihydro-pyrimido[6,1-a]isoquinolin-4-one], for which the IC50 on GPR84 and in the assay on human neutrophils was 0.01 to 100 nM in each case. For the compound `COCCCc1ccc2c(c1)CCn1c-2cc(OC[C@H]2COCCO2)nc1=O` [Compound 168, 2-((R)-1-[1,4]Dioxan-2-ylmethoxy)-9-(3-methoxy-propyl)-6,7-dihydro-pyrimido[6,1-a]isoquinolin-4-one], the IC50 at GPR84 is 101 to 500 nM; in the assay with human neutrophils, 0.01 to 100 nM. As to `O=c1nc(OCC2COCCO2)cc2n1CCc1cc(CCc3ccccn3)ccc1-2` (stereo not drawn) [Compound 20, 2-([1,4]dioxan-2-ylmethoxy)-9-(2-pyridin-2-yl-ethyl)-6,7-dihydro-pyrimido[6,1-a]isoquinolin-4-one], in the assay with human neutrophils, the IC50 lay in the range of 0.01 to 100 nM.

On to `CC(C)(C)c1nc(COc2ccc3c(c2)CCn2c-3cc(OCC3COCCO3)nc2=O)no1` (stereo not drawn) [Compound 17, 9-(5-tert-butyl-[1,2,4]oxadiazol-3-ylmethoxy)-2-([1,4]dioxan-2-ylmethoxy)-6,7-dihydro-pyrimido[6,1-a]isoquinolin-4-one], for which the IC50 in the assay on human neutrophils was in the range of 0.01 to 100 nM.
